Test results as given in PubChem BioAssay AID1963837 (Molecular Pharmacology Branch, DTP, NCI, 2024).

Test system: 843126-344-R-J1-PDC complex spheroid viability
Assay: Anticancer human tumor 843126-344-R-J1-PDC patient-derived melanoma cell line growth inhibition [POLQ]
Conditions: for IC50: curve of first compound; for viability, T/C: stronger effect = lower value; active = viability on the fitted dose curve at most 10% of control; inactive = the rest
Protocol: Multicellular complex tumor spheroid response to Polymerase (POL) inhibitors (novobiocin, ART-558, RP6685) in combination with a variety of drugs and investigational agents in selected tumor cell lines
The POL inhibitors (novobiocin, ART-558, and RP6685) were evaluated both individually and in combination with standard of care and investigational anticancer small molecules within a complex spheroid model of solid tumors. . Complex spheroids include a stromal component modeled by human endothelial cells (HUVEC) and fibroblasts modeled by human mesenchymal stem cells (MSCs). The concentration ranges selected for each drug and investigational agent were based upon clinically achievable concentrations if the clinical Cmax of the agent was known.
Compounds. The drugs and investigational agents: novobiocin (NSC847541), ART-558 (NSC835418), RP-6685 (NSC848927), peposertib (NSC802822), ceralasertib (NSC780249), elimusertib (NSC800525), camonsertib (NSC841442), AZD-1390 (NSC803789), olaparib (NSC753686), talazoparib (NSC767125), rucaparib (NSC756644), sotorasib (NSC818433), MRTX-1133 (NSC836407), SN-38 (NSC673596), topotecan (NSC609699), epotoside (NSC141540), doxorubicin (NSC123127), gemcitabine (NSC613327), 5-fluorouracil (NSC19893), paclitaxel (NSC125973), vemurafenib (NSC761431), MSA-2 (NSC828583), SN-011 (NSC837082), adavosertib (NSC754352), prexasertib (NSC758257), carboplatin (NSC241240) and oxaliplatin (NSC266046), were obtained from the National Cancer Institute (NCI) Developmental Therapeutics Program Chemical Repository (21). The FDA-approved anticancer drug set is available from the Developmental Therapeutics Program at https://dtp.cancer.gov/organization/dscb/obtaining/. […] The stock solutions were prepared in dimethyl sulfoxide (DMSO, Sigma-Aldrich, St. Louis, MO, cat. D2650), except for the platinum compounds which were prepared in saline (Quality Biological, Gaithersburg, MD, cat. 114-055-101), at 800-fold the tested concentration and stored at -70 degrees C prior to their use. All drugs and investigational agents were tested over a range starting from a high concentration at or near the clinical Cmax and decreasing in half-log increments. If the clinical Cmax for an agent had not been determined, the highest concentration tested was 10 microM, except for SN-38, which was tested at a high concentration of 1 microM.
Cell Culture. All cells were maintained in an incubator at 37 degrees C and 5% CO2 with 95% humidity. The PDC lines were cultured according to standard operating procedures established by the NCI PDMR (https://pdmr.cancer.gov). Table 3 of the manuscript, lists the cell lines along with the number of the three cell types plated to form the mct-spheroids and media for tumor cell growth. After thawing, all PDC lines, except 997537-175-T-J1-PDC and 415267-285-R-J2-PDC, were cultured in Matrigel-coated flasks prepared with a working solution of 1X Ham's F-12 nutrient mix, without supplementation (Thermo Fisher Scientific, cat. 11765054), 100 U/mL penicillin-streptomycin (Thermo Fisher Scientific, cat. 15140122), and 2.5% Matrigel (Corning Inc., Corning, NY, cat. 354248) for the first three passages. The two PDC lines 997537-175-T-J1-PDC and 415267-285-R-J2-PDC were cultured on uncoated flasks. The 857933-349-R-J2-PDC line was cultured in 6C/Colon 1B media containing advanced DMEM/F-12 (Thermo Fisher Scientific, cat. 12634028), 10 mM HEPES (Thermo Fisher Scientific, cat. 15630080), 1X GlutaMAX supplement (Thermo Fisher Scientific, cat. 35050061), 0.1 mg/mL primocin (InvivoGen, San Diego, CA, cat. ant-pm-2), 10% defined fetal bovine serum, heat inactivated (HyClone Laboratories Inc., Logan, UT, cat. SH30070.03HI), 50% L-WRN conditioned media (ATCC, cat. CRL-3276), 1.25 mM N-Acetyl-L-cysteine (Sigma-Aldrich, cat. A9165), 10 mM nicotinamide (Sigma-Aldrich, cat. N0636), 1X B-27 supplement (Thermo Fisher Scientific, cat. 17504044), 1X N-2 supplement (Thermo Fisher Scientific, cat. […]

[1] = second compound 0.0316 µM, first compound 0.0316 µM
[2] = second compound 0.0316 µM, first compound 0.1 µM
[3] = second compound 0.1 µM, first compound 0.0316 µM
[4] = second compound 0.1 µM, first compound 0.1 µM
[5] = second compound 0.316 µM, first compound 0.0316 µM
[6] = second compound 0.316 µM, first compound 0.1 µM
[7] = second compound 1 µM, first compound 0.0316 µM
[8] = second compound 1 µM, first compound 0.1 µM
[9] = second compound 3.16 µM, first compound 0.0316 µM
[10] = second compound 3.16 µM, first compound 0.1 µM
[11] = second compound 10 µM, first compound 0.0316 µM
[12] = second compound 10 µM, first compound 0.1 µM
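Throughout, for viability, T/C: spheroids exposed to drugs for seven days before readout.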

Cn1ncnc1[C@H]1c2n[nH]c(=O)c3cc(F)cc(c23)N[C@@H]1c1ccc(F)cc1 + Cc1cccc(N(C)C(=O)C2C(O)CCN2c2nc(C)cc(C(F)(F)F)c2C#N)c1
> 0.1 µM: IC50 (second compound 0.0316 µM) | IC50 (second compound 0.1 µM) | IC50 (second compound 0.316 µM) | IC50 (second compound 1 µM) | IC50 (second compound 3.16 µM) | IC50 (second compound 10 µM)
inactive: viability, T/C (second compound 0.0316 µM, first compound 0.000316 µM) 83.1% | viability, T/C (second compound 0.0316 µM, first compound 0.001 µM) 80% | viability, T/C (second compound 0.0316 µM, first compound 0.00316 µM) 92.3% | viability, T/C (second compound 0.0316 µM, first compound 0.01 µM) 74.1% | viability, T/C [1] 91.9% | viability, T/C [2] 71.8% | viability, T/C (second compound 0.1 µM, first compound 0.000316 µM) 94.8% | viability, T/C (second compound 0.1 µM, first compound 0.001 µM) 91.6% | viability, T/C (second compound 0.1 µM, first compound 0.00316 µM) 96.6% | viability, T/C (second compound 0.1 µM, first compound 0.01 µM) 73% | viability, T/C [3] 88.7% | viability, T/C [4] 66% | viability, T/C (second compound 0.316 µM, first compound 0.000316 µM) 82.8% | viability, T/C (second compound 0.316 µM, first compound 0.001 µM) 82.5% | viability, T/C (second compound 0.316 µM, first compound 0.00316 µM) 89.5% | viability, T/C (second compound 0.316 µM, first compound 0.01 µM) 86.3% | viability, T/C [5] 88.7% | viability, T/C [6] 86.5% | viability, T/C (second compound 1 µM, first compound 0.000316 µM) 73.2% | viability, T/C (second compound 1 µM, first compound 0.001 µM) 67.6% | viability, T/C (second compound 1 µM, first compound 0.00316 µM) 92.6% | viability, T/C (second compound 1 µM, first compound 0.01 µM) 86.8% | viability, T/C [7] 76.4% | viability, T/C [8] 78.6% | viability, T/C (second compound 3.16 µM, first compound 0.000316 µM) 67.4% | viability, T/C (second compound 3.16 µM, first compound 0.001 µM) 78.7% | viability, T/C (second compound 3.16 µM, first compound 0.00316 µM) 88.9% | viability, T/C (second compound 3.16 µM, first compound 0.01 µM) 77.6% | viability, T/C [9] 87.5% | viability, T/C [10] 67.3% | viability, T/C (second compound 10 µM, first compound 0.000316 µM) 76.3% | viability, T/C (second compound 10 µM, first compound 0.001 µM) 87.8% | viability, T/C (second compound 10 µM, first compound 0.00316 µM) 84.2% | viability, T/C (second compound 10 µM, first compound 0.01 µM) 77.4% | viability, T/C [11] 86.2% | viability, T/C [12] 79.9%

C#Cc1c(F)ccc2cc(O)cc(-c3ncc4c(N5CC6CCC(C5)N6)nc(OCC56CCCN5CC(F)C6)nc4c3F)c12 (centres undefined) + Nc1ccc(C#CCN(C(=O)Cc2ncc(C(F)(F)F)cc2C(F)(F)F)c2ccc(F)cc2)nn1
inactive: viability, T/C [1] 87.4% | viability, T/C [2] 95.1% | viability, T/C (second compound 0.0316 µM, first compound 0.316 µM) 99.8% | viability, T/C (second compound 0.0316 µM, first compound 1 µM) 88.7% | viability, T/C (second compound 0.0316 µM, first compound 3.16 µM) 121% | viability, T/C (second compound 0.0316 µM, first compound 10 µM) 76.5% | viability, T/C [3] 106% | viability, T/C [4] 110% | viability, T/C (second compound 0.1 µM, first compound 0.316 µM) 96.7% | viability, T/C (second compound 0.1 µM, first compound 1 µM) 108% | viability, T/C (second compound 0.1 µM, first compound 3.16 µM) 103% | viability, T/C (second compound 0.1 µM, first compound 10 µM) 84.5% | viability, T/C [5] 100% | viability, T/C [6] 91.4% | viability, T/C (second compound 0.316 µM, first compound 0.316 µM) 84.5% | viability, T/C (second compound 0.316 µM, first compound 1 µM) 110% | viability, T/C (second compound 0.316 µM, first compound 3.16 µM) 95.1% | viability, T/C (second compound 0.316 µM, first compound 10 µM) 90.8% | viability, T/C [7] 107% | viability, T/C [8] 91.2% | viability, T/C (second compound 1 µM, first compound 0.316 µM) 91.2% | viability, T/C (second compound 1 µM, first compound 1 µM) 117% | viability, T/C (second compound 1 µM, first compound 3.16 µM) 109% | viability, T/C (second compound 1 µM, first compound 10 µM) 88.8% | viability, T/C [9] 89.1% | viability, T/C [10] 84.2% | viability, T/C (second compound 3.16 µM, first compound 0.316 µM) 108% | viability, T/C (second compound 3.16 µM, first compound 1 µM) 94.5% | viability, T/C (second compound 3.16 µM, first compound 3.16 µM) 97.6% | viability, T/C (second compound 3.16 µM, first compound 10 µM) 82.6% | viability, T/C [11] 95.3% | viability, T/C [12] 83.4% | viability, T/C (second compound 10 µM, first compound 0.316 µM) 86.5% | viability, T/C (second compound 10 µM, first compound 1 µM) 83.6% | viability, T/C (second compound 10 µM, first compound 3.16 µM) 85.8% | viability, T/C (second compound 10 µM, first compound 10 µM) 79.4%
> 10 µM: IC50 (second compound 0.0316 µM) | IC50 (second compound 0.1 µM) | IC50 (second compound 0.316 µM) | IC50 (second compound 1 µM) | IC50 (second compound 3.16 µM) | IC50 (second compound 10 µM)
